Reference: PubChem BioAssay AID2060897 (Molecular Pharmacology Branch, DTP, NCI, 2025)

System: 966289-007-R4-J1-PDC complex spheroid viability
Experiment: Anticancer human tumor 966289-007-R4-J1-PDC patient-derived pancreatic adenocarcinoma cell line growth inhibition [RAS]
Details: for IC50: curve of first compound; for viability, T/C: stronger effect = lower value
In short: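 Multi-cell-type spheroids: tumor cells plus HUVEC endothelial cells and mesenchymal stem cells. RAS-pathway inhibitors were combined with targeted agents, each dosed in half-log steps down from clinical Cmax, or from 10 microM when Cmax was unknown.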

[1] = second compound 0.000949 µM, first compound 0.0316 µM
[2] = second compound 0.000949 µM, first compound 0.1 µM
[3] = second compound 0.000949 µM, first compound 0.316 µM
[4] = second compound 0.000949 µM, first compound 1 µM
[5] = second compound 0.000949 µM, first compound 3.16 µM
[6] = second compound 0.000949 µM, first compound 10 µM
[7] = second compound 0.003 µM, first compound 0.0316 µM
[8] = second compound 0.003 µM, first compound 0.1 µM
[9] = second compound 0.003 µM, first compound 0.316 µM
[10] = second compound 0.003 µM, first compound 1 µM
[11] = second compound 0.003 µM, first compound 3.16 µM
[12] = second compound 0.003 µM, first compound 10 µM
[13] = second compound 0.00949 µM, first compound 0.0316 µM
[14] = second compound 0.00949 µM, first compound 0.1 µM
[15] = second compound 0.00949 µM, first compound 0.316 µM
[16] = second compound 0.00949 µM, first compound 1 µM
[17] = second compound 0.00949 µM, first compound 3.16 µM
[18] = second compound 0.00949 µM, first compound 10 µM
[19] = second compound 0.03 µM, first compound 0.0316 µM
[20] = second compound 0.03 µM, first compound 0.1 µM
[21] = second compound 0.03 µM, first compound 0.316 µM
[22] = second compound 0.03 µM, first compound 1 µM
[23] = second compound 0.03 µM, first compound 3.16 µM
[24] = second compound 0.03 µM, first compound 10 µM
[25] = second compound 0.0949 µM, first compound 0.0316 µM
[26] = second compound 0.0949 µM, first compound 0.1 µM
[27] = second compound 0.0949 µM, first compound 0.316 µM
[28] = second compound 0.0949 µM, first compound 1 µM
[29] = second compound 0.0949 µM, first compound 3.16 µM
[30] = second compound 0.0949 µM, first compound 10 µM
[31] = second compound 0.3 µM, first compound 0.0316 µM
[32] = second compound 0.3 µM, first compound 0.1 µM
[33] = second compound 0.3 µM, first compound 0.316 µM
[34] = second compound 0.3 µM, first compound 1 µM
[35] = second compound 0.3 µM, first compound 3.16 µM
[36] = second compound 0.3 µM, first compound 10 µM
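Also: spheroids exposed to agents for one week before readout.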
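For viability, T/C in this document: percent viability relative to DMSO vehicle control wells as 100%.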

Work on `C=CC(=O)Nc1cc(Nc2nccc(-c3cn(C)c4ccccc34)n2)c(OC)cc1N(C)CCN(C)C` + C=CC(=O)N1CCN(c2nc(OCC3CCCN3C)nc3c(F)c(-c4nc(N)cc(C)c4C(F)(F)F)c(Cl)cc23)C(C)C1 yielded an IC50 (second compound 0.00316 µM) of over 1 µM, an IC50 (second compound 0.01 µM) of over 1 µM and an IC50 (second compound 0.0316 µM) of over 1 µM. For the same compound, the IC50 (second compound 0.1 µM) was over 1 µM, the IC50 (second compound 0.316 µM) was over 1 µM and the IC50 (second compound 1 µM) was over 1 µM. For the same compound, the viability, T/C (second compound 0.00316 µM, first compound 0.00316 µM) was 102%, the viability, T/C (second compound 0.00316 µM, first compound 0.01 µM) was 105% and the viability, T/C (second compound 0.00316 µM, first compound 0.0316 µM) was 101%. The viability, T/C (second compound 0.00316 µM, first compound 0.1 µM) was 104%, the viability, T/C (second compound 0.00316 µM, first compound 0.316 µM) was 104% and the viability, T/C (second compound 0.00316 µM, first compound 1 µM) was 71.7%. For the same compound, the viability, T/C (second compound 0.01 µM, first compound 0.00316 µM) was 95.6%, the viability, T/C (second compound 0.01 µM, first compound 0.01 µM) was 100% and the viability, T/C (second compound 0.01 µM, first compound 0.0316 µM) was 85.5%. It also gave a viability, T/C (second compound 0.01 µM, first compound 0.1 µM) of 97.7%, a viability, T/C (second compound 0.01 µM, first compound 0.316 µM) of 97.9% and a viability, T/C (second compound 0.01 µM, first compound 1 µM) of 71.8%. It also gave a viability, T/C (second compound 0.0316 µM, first compound 0.00316 µM) of 105%, a viability, T/C (second compound 0.0316 µM, first compound 0.01 µM) of 102% and a viability, T/C (second compound 0.0316 µM, first compound 0.0316 µM) of 97.9%. For the same compound, the viability, T/C (second compound 0.0316 µM, first compound 0.1 µM) was 98.7%, the viability, T/C (second compound 0.0316 µM, first compound 0.316 µM) was 97.3% and the viability, T/C (second compound 0.0316 µM, first compound 1 µM) was 78.8%. The viability, T/C (second compound 0.1 µM, first compound 0.00316 µM) was 117%, the viability, T/C (second compound 0.1 µM, first compound 0.01 µM) was 103% and the viability, T/C (second compound 0.1 µM, first compound 0.0316 µM) was 101%. The viability, T/C (second compound 0.1 µM, first compound 0.1 µM) was 97.4%, the viability, T/C (second compound 0.1 µM, first compound 0.316 µM) was 85.4% and the viability, T/C (second compound 0.1 µM, first compound 1 µM) was 83.9%. The viability, T/C (second compound 0.316 µM, first compound 0.00316 µM) was 104%, the viability, T/C (second compound 0.316 µM, first compound 0.01 µM) was 112% and the viability, T/C (second compound 0.316 µM, first compound 0.0316 µM) was 118%. It also gave a viability, T/C (second compound 0.316 µM, first compound 0.1 µM) of 98.5%, a viability, T/C (second compound 0.316 µM, first compound 0.316 µM) of 84.6% and a viability, T/C (second compound 0.316 µM, first compound 1 µM) of 78.9%. The viability, T/C (second compound 1 µM, first compound 0.00316 µM) was 102%, the viability, T/C (second compound 1 µM, first compound 0.01 µM) was 95.5% and the viability, T/C (second compound 1 µM, first compound 0.0316 µM) was 95.3%. It also gave a viability, T/C (second compound 1 µM, first compound 0.1 µM) of 100%, a viability, T/C (second compound 1 µM, first compound 0.316 µM) of 96% and a viability, T/C (second compound 1 µM, first compound 1 µM) of 67.6%.

With `CCC(CC)c1cc(NC2CCC(N)C2)n2nccc2n1` (stereo unspecified) + CCn1c(-c2cc(N3CCN(C)CC3)cnc2C(C)OC)c2c3cc(ccc31)-c1csc(n1)CC(NC(=O)C1CC1C)C(=O)N1CCCC(N1)C(=O)OCC(C)(C)C2 the IC50 (second compound 0.000949 µM) was 1.43 µM, the IC50 (second compound 0.003 µM) was 1.55 µM and the IC50 (second compound 0.00949 µM) was 1.79 µM. For the same compound, the IC50 (second compound 0.03 µM) was 1.66 µM, the IC50 (second compound 0.0949 µM) was 1.85 µM and the IC50 (second compound 0.3 µM) was 1.86 µM. For the same compound, the viability, T/C [1] was 111%, the viability, T/C [2] was 89.1% and the viability, T/C [3] was 99.3%. For the same compound, the viability, T/C [4] was 71.5%, the viability, T/C [5] was 1.75% and the viability, T/C [6] was 1.38%. The viability, T/C [7] was 72.2%, the viability, T/C [8] was 98.3% and the viability, T/C [9] was 89.2%. For the same compound, the viability, T/C [10] was 79.2%, the viability, T/C [11] was 2.05% and the viability, T/C [12] was 1.33%. For the same compound, the viability, T/C [13] was 81.7%, the viability, T/C [14] was 103% and the viability, T/C [15] was 81.9%. The viability, T/C [16] was 131%, the viability, T/C [17] was 1.93% and the viability, T/C [18] was 1.58%. For the same compound, the viability, T/C [19] was 72.3%, the viability, T/C [20] was 86.8% and the viability, T/C [21] was 92.5%. The viability, T/C [22] was 98.9%, the viability, T/C [23] was 1.68% and the viability, T/C [24] was 2.28%. It also gave a viability, T/C [25] of 86.2%, a viability, T/C [26] of 111% and a viability, T/C [27] of 107%. The viability, T/C [28] was 119%, the viability, T/C [29] was 1.88% and the viability, T/C [30] was 1.55%. For the same compound, the viability, T/C [31] was 75.7%, the viability, T/C [32] was 116% and the viability, T/C [33] was 116%. It also gave a viability, T/C [34] of 117%, a viability, T/C [35] of 2.08% and a viability, T/C [36] of 1.97%.

Compound `C[C@@H](NC(=O)c1ncnc(N)c1Cl)c1ncc(C(=O)Nc2cc(C(F)(F)F)c(Cl)cn2)s1` + CCn1c(-c2cc(N3CCN(C)CC3)cnc2C(C)OC)c2c3cc(ccc31)-c1csc(n1)CC(NC(=O)C1CC1C)C(=O)N1CCCC(N1)C(=O)OCC(C)(C)C2 has an IC50 (second compound 0.000949 µM) of over 10 µM, an IC50 (second compound 0.003 µM) of over 10 µM and an IC50 (second compound 0.00949 µM) of over 10 µM. For the same compound, the IC50 (second compound 0.03 µM) was over 10 µM, the IC50 (second compound 0.0949 µM) was over 10 µM and the IC50 (second compound 0.3 µM) was over 10 µM. It also gave a viability, T/C [1] of 125%, a viability, T/C [2] of 120% and a viability, T/C [3] of 91.1%. The viability, T/C [4] was 73%, the viability, T/C [5] was 73.8% and the viability, T/C [6] was 103%. It also gave a viability, T/C [7] of 94.6%, a viability, T/C [8] of 113% and a viability, T/C [9] of 102%. For the same compound, the viability, T/C [10] was 85.1%, the viability, T/C [11] was 97% and the viability, T/C [12] was 84.2%. It also gave a viability, T/C [13] of 97.3%, a viability, T/C [14] of 116% and a viability, T/C [15] of 95.3%. The viability, T/C [16] was 69%, the viability, T/C [17] was 103% and the viability, T/C [18] was 110%. The viability, T/C [19] was 79.2%, the viability, T/C [20] was 77.2% and the viability, T/C [21] was 118%. It also gave a viability, T/C [22] of 123%, a viability, T/C [23] of 117% and a viability, T/C [24] of 82%. For the same compound, the viability, T/C [25] was 76.6%, the viability, T/C [26] was 88.3% and the viability, T/C [27] was 119%. For the same compound, the viability, T/C [28] was 105%, the viability, T/C [29] was 111% and the viability, T/C [30] was 150%. For the same compound, the viability, T/C [31] was 60.5%, the viability, T/C [32] was 101% and the viability, T/C [33] was 130%. It also gave a viability, T/C [34] of 141%, a viability, T/C [35] of 116% and a viability, T/C [36] of 107%.
